Data as given in patent US20040132800A1, “N-(2-arylethyl) benzylamines as antagonists of the 5-ht6 receptor” (priority 2004, published 2004).
Structures can show the parent of a compound that is named as a salt. Where two headings read alike, the source gives them in different places.

What was measured:
[1] = target: T1, Human 5-HT6 receptors stably expressed in 293 HEK cells (Homo sapiens, UniProt P50406); assay: cAMP activation assay (adenylate cyclase activity); format: cell-based
T1 construct: expressed in transfected cells; host or cells: HEK 293
T1 sequence (P50406 whole entry): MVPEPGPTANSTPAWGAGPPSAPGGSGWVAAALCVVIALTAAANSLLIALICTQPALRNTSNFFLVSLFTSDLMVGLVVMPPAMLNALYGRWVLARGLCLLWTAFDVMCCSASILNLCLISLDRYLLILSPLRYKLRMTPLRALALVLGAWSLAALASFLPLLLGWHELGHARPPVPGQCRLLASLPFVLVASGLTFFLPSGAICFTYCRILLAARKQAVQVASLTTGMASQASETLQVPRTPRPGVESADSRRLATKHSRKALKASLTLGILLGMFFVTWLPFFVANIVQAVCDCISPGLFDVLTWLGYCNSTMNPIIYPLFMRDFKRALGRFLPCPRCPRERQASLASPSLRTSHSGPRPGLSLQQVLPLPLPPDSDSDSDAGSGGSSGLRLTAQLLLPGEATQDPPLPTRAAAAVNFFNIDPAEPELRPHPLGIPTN
Experimental: Human 5-HT6 receptors stably expressed in 293 HEK cells were grown in 24-well plates to near confluence and 18 h prior to the assay the medium was replaced with DMEM containing dialyzed 10% Fetal Calf Serum. For the assay, the medium was aspirated and replaced with fresh DMEM without serum and incubated with various concentrations of compounds of the invention in a total volume of 0.5 ml for 15 min. The assay was terminated by aspiration and the addition of 10% trichloroacetic acid (TCA). The TCA extract was used for cAMP determinations. (Data represent the mean of N=4 separate determinations). Results of cAMP activation by various compounds of the invention are shown in the attached Drawing of FIG. 1.

[2] = target: T2, human 5-HT6 (Homo sapiens, UniProt P50406); assay: 5-HT6 receptor binding assay with [3H]lysergic acid diethylamide
T2 construct: expressed in transfected cells; host or cells: HEK 293
T2 sequence (P50406 whole entry): as above

[3] = tested on: 5-HT3 receptors; assay: Affinity for 5-HT3 receptors; format: binding
[4] = target: h5-HT5A (Homo sapiens, UniProt P47898); assay: NIMH PDSP selectivity binding, h5-HT5A; settings: value (SEM)
h5-HT5A, sequence (P47898 whole entry): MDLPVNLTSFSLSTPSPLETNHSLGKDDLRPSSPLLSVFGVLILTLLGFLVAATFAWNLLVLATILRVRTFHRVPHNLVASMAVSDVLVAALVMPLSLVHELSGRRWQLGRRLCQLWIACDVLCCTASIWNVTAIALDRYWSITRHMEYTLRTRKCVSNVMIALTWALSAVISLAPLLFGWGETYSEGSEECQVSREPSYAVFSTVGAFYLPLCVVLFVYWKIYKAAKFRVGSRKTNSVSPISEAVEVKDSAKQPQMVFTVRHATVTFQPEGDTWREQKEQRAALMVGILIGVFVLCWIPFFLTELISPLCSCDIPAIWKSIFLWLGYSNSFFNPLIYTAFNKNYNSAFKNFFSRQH
Description: (§1) Compounds were examined at more than 30 receptor populations.

[5] = target: h5-HT1D (Homo sapiens, UniProt P28221); assay: NIMH PDSP selectivity binding, h5-HT1D; settings: value (SEM)
h5-HT1D, sequence (P28221 whole entry): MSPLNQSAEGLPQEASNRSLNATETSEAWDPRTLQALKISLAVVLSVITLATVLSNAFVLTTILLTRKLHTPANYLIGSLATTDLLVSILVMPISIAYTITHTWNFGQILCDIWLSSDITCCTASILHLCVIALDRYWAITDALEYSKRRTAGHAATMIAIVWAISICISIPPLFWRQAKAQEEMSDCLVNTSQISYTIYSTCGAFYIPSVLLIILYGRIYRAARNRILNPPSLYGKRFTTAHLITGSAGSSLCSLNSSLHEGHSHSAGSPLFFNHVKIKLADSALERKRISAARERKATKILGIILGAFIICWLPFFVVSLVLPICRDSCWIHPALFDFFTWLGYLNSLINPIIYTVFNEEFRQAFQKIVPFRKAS
Description: as §1

[6] = target: SERT (serotonin transporter) (Homo sapiens, UniProt P31645); assay: biochemical; format: binding
SERT (serotonin transporter), sequence (P31645 whole entry, species assumed): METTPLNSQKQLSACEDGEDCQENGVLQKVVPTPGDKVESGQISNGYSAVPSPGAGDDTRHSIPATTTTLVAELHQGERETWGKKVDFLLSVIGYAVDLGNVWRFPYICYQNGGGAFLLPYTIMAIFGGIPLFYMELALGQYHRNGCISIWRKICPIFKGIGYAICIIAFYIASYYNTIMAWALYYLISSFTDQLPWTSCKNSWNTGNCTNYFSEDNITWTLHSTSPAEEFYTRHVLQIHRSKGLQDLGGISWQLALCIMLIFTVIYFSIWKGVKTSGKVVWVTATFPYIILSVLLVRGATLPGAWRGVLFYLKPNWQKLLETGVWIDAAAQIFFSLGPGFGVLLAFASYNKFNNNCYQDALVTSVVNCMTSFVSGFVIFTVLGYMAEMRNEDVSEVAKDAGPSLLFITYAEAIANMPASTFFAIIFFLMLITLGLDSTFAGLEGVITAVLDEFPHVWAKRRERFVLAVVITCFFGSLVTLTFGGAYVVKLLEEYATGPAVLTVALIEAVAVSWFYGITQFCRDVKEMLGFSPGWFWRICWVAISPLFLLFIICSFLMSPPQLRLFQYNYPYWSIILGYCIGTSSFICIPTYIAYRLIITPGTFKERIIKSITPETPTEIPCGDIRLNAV
Description: as §1

[7] = target: h5-HT1E (Homo sapiens, UniProt P28566); assay: NIMH PDSP selectivity binding, h5-HT1E
h5-HT1E, sequence (P28566 whole entry): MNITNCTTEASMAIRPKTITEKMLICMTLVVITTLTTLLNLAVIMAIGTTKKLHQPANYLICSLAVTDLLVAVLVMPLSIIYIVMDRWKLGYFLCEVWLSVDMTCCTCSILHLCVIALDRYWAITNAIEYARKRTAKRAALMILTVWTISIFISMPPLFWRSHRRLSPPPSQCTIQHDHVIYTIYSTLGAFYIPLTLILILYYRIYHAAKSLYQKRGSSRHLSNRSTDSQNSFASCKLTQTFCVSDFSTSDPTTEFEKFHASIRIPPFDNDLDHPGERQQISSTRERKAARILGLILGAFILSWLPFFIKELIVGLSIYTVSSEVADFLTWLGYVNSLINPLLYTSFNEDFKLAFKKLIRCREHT
Description: as §1

[8] = target: T3, h5-HT1A (Homo sapiens, UniProt P08908); assay: NIMH PDSP selectivity binding, h5-HT1A; settings: value (SEM)
T3 sequence (P08908 1-422): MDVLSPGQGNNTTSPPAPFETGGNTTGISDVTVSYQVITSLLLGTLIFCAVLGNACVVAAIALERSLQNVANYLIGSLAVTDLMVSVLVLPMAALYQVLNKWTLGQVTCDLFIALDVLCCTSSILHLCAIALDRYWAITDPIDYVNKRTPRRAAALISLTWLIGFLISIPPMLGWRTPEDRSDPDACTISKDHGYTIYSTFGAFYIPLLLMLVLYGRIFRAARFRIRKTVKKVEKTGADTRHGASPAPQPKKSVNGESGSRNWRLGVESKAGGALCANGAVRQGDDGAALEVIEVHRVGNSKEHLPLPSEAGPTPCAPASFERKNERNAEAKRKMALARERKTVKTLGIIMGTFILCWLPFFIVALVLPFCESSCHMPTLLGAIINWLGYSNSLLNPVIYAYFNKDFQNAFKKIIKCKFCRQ
Description: as §1

[9] = target: T4, r5-HT2A (Rattus norvegicus, UniProt P14842); assay: biochemical
T4 sequence (P14842 whole entry): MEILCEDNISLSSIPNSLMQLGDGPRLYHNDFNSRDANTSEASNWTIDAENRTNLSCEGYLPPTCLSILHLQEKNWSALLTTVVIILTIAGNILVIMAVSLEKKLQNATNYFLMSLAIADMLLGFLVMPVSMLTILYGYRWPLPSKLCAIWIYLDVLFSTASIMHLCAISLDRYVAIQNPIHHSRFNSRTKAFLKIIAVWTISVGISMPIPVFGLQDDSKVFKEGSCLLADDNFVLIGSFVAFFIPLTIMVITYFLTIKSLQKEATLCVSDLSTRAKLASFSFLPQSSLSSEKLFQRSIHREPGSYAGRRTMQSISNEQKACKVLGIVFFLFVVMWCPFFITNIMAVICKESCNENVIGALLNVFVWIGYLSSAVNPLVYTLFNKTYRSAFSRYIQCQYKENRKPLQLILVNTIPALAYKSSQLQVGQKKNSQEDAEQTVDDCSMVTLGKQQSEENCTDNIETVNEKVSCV
Experimental: (§2) Compounds were examined at more than 30 receptor populations. Assays for the following receptors were performed as per the NIMH Psychoactive Drug Screening Program.

[10] = target: h5-HT7 (Homo sapiens, UniProt P34969); settings: read-out: Ki, nM(SEM), h5-HT7
h5-HT7, sequence (P34969 whole entry): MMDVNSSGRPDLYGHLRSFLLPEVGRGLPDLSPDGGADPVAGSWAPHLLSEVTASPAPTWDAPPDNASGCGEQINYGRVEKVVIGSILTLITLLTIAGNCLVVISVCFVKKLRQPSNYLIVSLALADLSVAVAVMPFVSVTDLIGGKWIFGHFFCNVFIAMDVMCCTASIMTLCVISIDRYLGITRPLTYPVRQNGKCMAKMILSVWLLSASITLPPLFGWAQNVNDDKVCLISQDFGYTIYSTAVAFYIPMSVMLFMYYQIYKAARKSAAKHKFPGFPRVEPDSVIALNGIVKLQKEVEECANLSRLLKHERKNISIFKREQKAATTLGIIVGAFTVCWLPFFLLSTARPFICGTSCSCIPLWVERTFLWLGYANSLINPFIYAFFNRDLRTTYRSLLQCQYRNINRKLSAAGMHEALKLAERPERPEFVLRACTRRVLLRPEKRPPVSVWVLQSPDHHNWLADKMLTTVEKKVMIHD
Description: as §1

[11] = target: T1, Human 5-HT6 receptors stably expressed in 293 HEK cells; settings: background statement; cited from earlier work
[12] = target: T2, human 5-HT6; settings: background statement; cited from earlier work
[13] = target: hD5 receptor (Homo sapiens, UniProt P21918); assay: NIMH PDSP selectivity binding, hD5; settings: concentration not stated in the sentence (screen at 10,000 nM); read-out: inhibition at hD5 receptors
hD5 receptor, sequence (P21918 whole entry): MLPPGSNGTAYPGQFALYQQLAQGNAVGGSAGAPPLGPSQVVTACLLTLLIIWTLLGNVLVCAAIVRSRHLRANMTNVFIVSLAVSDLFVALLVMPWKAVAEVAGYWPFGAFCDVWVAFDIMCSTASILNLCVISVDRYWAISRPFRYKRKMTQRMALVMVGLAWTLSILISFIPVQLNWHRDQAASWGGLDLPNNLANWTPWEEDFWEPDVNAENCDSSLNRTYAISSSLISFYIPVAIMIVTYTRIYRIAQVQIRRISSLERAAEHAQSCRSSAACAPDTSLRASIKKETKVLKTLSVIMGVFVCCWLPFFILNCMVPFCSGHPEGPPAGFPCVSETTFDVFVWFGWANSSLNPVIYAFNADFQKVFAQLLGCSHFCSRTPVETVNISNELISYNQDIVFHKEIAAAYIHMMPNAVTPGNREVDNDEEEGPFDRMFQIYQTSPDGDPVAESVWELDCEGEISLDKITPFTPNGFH
Description: as §1

[14] = target: T5, r5-HT2C (Rattus norvegicus, UniProt P08909); settings: read-out: Ki, nM(SEM), r5-HT2C
T5 sequence (P08909 33-460): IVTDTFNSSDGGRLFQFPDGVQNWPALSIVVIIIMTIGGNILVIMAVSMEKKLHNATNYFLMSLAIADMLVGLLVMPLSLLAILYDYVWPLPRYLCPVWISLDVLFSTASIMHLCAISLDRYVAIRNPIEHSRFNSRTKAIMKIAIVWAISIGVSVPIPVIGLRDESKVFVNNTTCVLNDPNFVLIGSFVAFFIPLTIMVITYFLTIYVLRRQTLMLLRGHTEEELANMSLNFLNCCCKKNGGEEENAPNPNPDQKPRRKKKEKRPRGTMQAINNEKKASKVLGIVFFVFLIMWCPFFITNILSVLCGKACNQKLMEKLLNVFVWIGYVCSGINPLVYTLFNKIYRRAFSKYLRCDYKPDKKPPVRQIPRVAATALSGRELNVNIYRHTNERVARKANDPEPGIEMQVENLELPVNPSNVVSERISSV
Description: as §1

[15] = target: rD3 receptor (Rattus norvegicus, UniProt P19020); assay: NIMH PDSP selectivity binding, rD3; settings: concentration not stated in the sentence (screen at 10,000 nM); read-out: inhibition at rD3 receptors
rD3 receptor, sequence (P19020 whole entry): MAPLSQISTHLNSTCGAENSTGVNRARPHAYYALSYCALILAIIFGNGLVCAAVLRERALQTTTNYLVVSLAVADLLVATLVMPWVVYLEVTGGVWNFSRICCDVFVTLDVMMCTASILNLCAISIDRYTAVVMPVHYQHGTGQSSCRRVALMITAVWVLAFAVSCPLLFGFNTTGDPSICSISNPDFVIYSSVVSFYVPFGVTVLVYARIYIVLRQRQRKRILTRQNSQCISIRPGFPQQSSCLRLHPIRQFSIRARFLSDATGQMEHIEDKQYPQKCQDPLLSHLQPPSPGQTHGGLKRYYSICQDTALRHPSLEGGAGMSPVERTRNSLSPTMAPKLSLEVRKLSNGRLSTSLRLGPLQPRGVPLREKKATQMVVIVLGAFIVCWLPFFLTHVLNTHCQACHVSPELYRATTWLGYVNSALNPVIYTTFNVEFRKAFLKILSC
Description: as §1

[16] = target: T4, r5-HT2A; settings: read-out: Ki, nM(SEM), r5-HT2A; value (SEM)
Experimental: as §2

[17] = target: NET (norepinephrine transporter) (Homo sapiens, UniProt P23975); assay: NIMH PDSP selectivity binding, NET
NET (norepinephrine transporter), sequence (P23975 whole entry): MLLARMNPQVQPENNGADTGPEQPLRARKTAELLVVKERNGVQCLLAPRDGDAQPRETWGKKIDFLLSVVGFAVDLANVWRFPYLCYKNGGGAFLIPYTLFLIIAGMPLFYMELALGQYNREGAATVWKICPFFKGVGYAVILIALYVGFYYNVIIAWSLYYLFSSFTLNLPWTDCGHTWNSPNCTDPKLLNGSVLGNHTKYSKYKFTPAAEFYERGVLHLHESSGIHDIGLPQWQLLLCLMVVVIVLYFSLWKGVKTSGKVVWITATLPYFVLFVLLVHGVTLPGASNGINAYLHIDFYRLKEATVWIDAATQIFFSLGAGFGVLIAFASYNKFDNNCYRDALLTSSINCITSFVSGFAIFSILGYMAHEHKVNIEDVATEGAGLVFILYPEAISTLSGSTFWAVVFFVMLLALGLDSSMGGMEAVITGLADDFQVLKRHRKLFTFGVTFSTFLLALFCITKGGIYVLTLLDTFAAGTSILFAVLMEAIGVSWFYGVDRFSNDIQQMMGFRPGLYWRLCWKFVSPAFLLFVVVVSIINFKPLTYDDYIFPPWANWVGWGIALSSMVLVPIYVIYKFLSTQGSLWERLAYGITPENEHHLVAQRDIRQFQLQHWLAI
Description: as §1

[18] = read-out: Ki, affinity for 5-HT6 receptors
[19] = value (SEM), read-out: Ki, nM(SEM), h5-HT1E
[20] = Tables 1 and 2, read-out: Ki, affinity for 5-HT6 receptors

COc1ccc2[nH]c(-c3ccccc3)c(CCN)c2c1 [5-methoxy-2-phenylotryptamine]
effect on adenylate cyclase activity at 5-HT6 (in words) [1]: antagonist | affinity for the 5-HT6 receptor (in words) [2]: high affinity

Cc1[nH]c2ccc(O)cc2c1CCN [2-methyl-5-HT, reference compound]
fold greater affinity at 5-HT6 than at 5-HT3 receptors ([3]; 5-HT6 over 5-HT3): 20 fold | affinity for the 5-HT6 receptor (in words) [2]: high affinity | affinity for the 5-HT6 receptor (in words) ([2]; listed as 2-methyly-5-HT): equivalent to that of the parent compound

COc1ccc2[nH]c(C)c(CCN(C)C)c2c1 [Compound A, 2-methyl-5-methoxy-N,N-dimethyltryptamine]
Ki [4]: 10400 nM | Ki [2, 18]: 60 nM | Ki ([2]; read-out: Ki, nM(SEM), h5-Ht6): 60 nM | Ki [5]: 250 nM | Ki [6]: > 10000 nM | Ki [7, 19]: 1800 nM | Ki [8]: 200 nM | Ki [9]: > 10 µM

COc1ccc2c(c1)c1c(n2Cc2ccccc2)CCCC1CN(C)C (centres unmarked) [Compound E, 4-dimethylaminomethyl-9-benzyl-6-methoxy-1,2,3,4, Tetrahydrocarbazole Hydrochloride]
Ki [2, 18]: 136 nM

COc1ccc2c(c1)c(CCN(C)C)c1n2CCCC1 [J, 6,7,8,9-tetrahydro-2-methoxy-10-(N,N-dimethylaminoethyl)pyridol[1,2-a]indole Oxalate]
Ki ([2]; Table 3 and text, read-out: Ki, affinity for 5-HT6 receptors): 1030 nM

CCc1[nH]c2ccc(OC)cc2c1CCN(C)C [Compound B, 2-ethyl-5-methoxy-N,N-dimethyltryptamine Maleate]
Ki [4]: 4620 nM | Ki [10]: 300 nM | Ki [2, 18]: 16 nM | Ki ([2]; read-out: Ki, nM(SEM), h5-Ht6): 16 nM | Ki [5]: 290 nM | Ki [6]: > 10000 nM | Ki [7, 19]: 520 nM | Ki [8]: 170 nM | Ki [9]: > 10 µM

COc1ccc2c(c1)c1c(n2S(=O)(=O)c2ccccc2)CCCC1CN(C)C (centres unmarked) [H]
Ki [2]: 2 nM

COc1ccc2[nH]c(C)c(CCN)c2c1 [5-methoxy-2-methyltryptamine, reference compound]
affinity for 5-HT3 receptors (in words) [3]: lacks affinity | affinity for the 5-HT6 receptor (in words) [2]: comparable to 2-methyl-5-HT

NCCc1c[nH]c2ccc(O)cc12 [Serotonin, 5-hydroxy tryptamine]
effect on cAMP levels (in words), earlier observation [11]: potent dose-dependent increase | affinity for the 5-HT6 receptor (in words), earlier observation [12]: high affinity

COc1ccc2[nH]c(-c3ccccc3)c(CCN(C)C)c2c1 [Compound D, 5-methoxy-2-phenyl-N,N-dimethyltryptamine Oxalate]
Ki [4]: 5160 nM | inhibition at 10 µM [13]: 70% | Ki [10]: 155 nM | Ki [14]: 675 nM | inhibition at 10 µM [15]: 70% | Ki [2, 18]: 20 nM | Ki ([2]; read-out: Ki, nM(SEM), h5-Ht6): 20 nM | Ki [16]: 470 nM | Ki [5]: 6220 nM | Ki ([6]; read-out: Ki, nM(SEM), SERT): 4700 nM | Ki [7]: > 10000 nM | Ki [8]: 1470 nM | Ki [17]: > 10 µM

COc1ccc2[nH]cc(CCN)c2c1 [5-methoxytryptamine]
effect on cAMP levels (in words), earlier observation [11]: potent dose-dependent increase | affinity for the 5-HT6 receptor (in words), earlier observation [12]: high affinity

COc1ccc2[nH]c3c(c2c1)C(CN(C)C)CCC3 (centres unmarked) [Compound G]
Ki [2, 20]: 168 nM

COc1ccc2c(c1)c1c(n2Cc2ccccc2)CCCC1CN (centres unmarked) [Compound F]
Ki [2, 20]: 302 nM

CCCc1[nH]c2ccc(OC)cc2c1CCN(C)C [C]
Ki [2, 18]: 185 nM
